Earlier results, collected in patent publication US6491946B1, “Pharmaceutical levothyroxine preparation” (Merck Patent Gesellschaft, priority 1998, dated 2002).
Like-named read-outs stand apart in the source and are kept apart here.

N[C@@H](Cc1cc(I)c(Oc2cc(I)c(O)c(I)c2)c(I)c1)C(=O)O [Levothyroxine sodium, levothyroxine sodium]
Solubility (in ethanol): soluble with great difficulty
Solubility (in water): soluble with great difficulty
